From patent publication US20260242478A1, “ANTIBODIES FOR TARGETING PSMA AND CD28 AND USES THEREOF” (Janux Therapeutics, Inc., priority 2023, published 2026) come the findings set out here.

This test deals with anti-CD28 scFv. Kind of test: Panning ELISA of clonal phage, anti-CD28 scFv, with or without CD28 soluble protein (Peptide-9 library). Type of test: binding. The settings on record: background (no anti-CD28 scFv). The protocol: Clonal phage were harvested as crude supernatants and screened via standard enzyme linked immunosorbent assays (ELISAs). […] Prior to the addition of clonal phage, wells were incubated with blocking buffer and CD28 soluble protein or blocking buffer alone. Without washing or aspirating, clonal phage supernatants were then added to the wells and incubated for a short time. Wells were then washed followed by detection of bound phage using a horse radish peroxidase conjugated anti-M13 antibody. Clonal phage of interest were then sent for sequence analysis.

Where no end group is shown, it is not given here.

Sequence of anti-CD28 scFv (as listed by the source): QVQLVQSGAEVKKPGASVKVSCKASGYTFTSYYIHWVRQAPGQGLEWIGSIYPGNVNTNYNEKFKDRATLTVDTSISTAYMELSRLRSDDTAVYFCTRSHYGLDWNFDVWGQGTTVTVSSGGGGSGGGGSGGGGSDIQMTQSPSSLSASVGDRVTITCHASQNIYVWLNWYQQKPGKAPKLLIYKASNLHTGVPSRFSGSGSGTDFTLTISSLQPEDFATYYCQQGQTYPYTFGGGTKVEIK

Regarding Phage-379 (MDWCPRNLWAECFS), the Background signal is recorded as 0.061. On to Phage-386 (NHWCPTTLWNRCVA), for which the Background signal is 0.293.

In turn, Phage-453 (MDWCPSDYWYVCFA) showed a Background signal (Peptide-9 library) of 0.065. Same read-out and setting: to Phage-124 (MDWCPRPLWDMCFF) belongs 0.063. Phage-337 (MDWCPKPLWHVCFA) gave a Background signal of 0.069. Substance Phage-288 (MDWCPIALWDFCFA) registered a Background signal of 0.073. The same measure, in the same setting: to Phage-290 (MDWCPRDLWSVCFS) belongs 0.090. On the same count and under the same terms, to Phage-393 (MDWCPRDMWFECFN) belongs 0.069. In the case of Phage-95 (MDWCPRFLWSECFN), the Background signal (Peptide-9 library) came to 0.062. As for Phage-329 (MDWCPRALWNVCFA), the Background signal came to 0.071. As for Phage-450 (EDWCPTDVWPYCFS), for the setting “Peptide-9 library”, the Background signal amounted to 0.100. Phage-437 (MDWCPVDRWADCFN) displayed a Background signal (Peptide-9 library) of 0.071.

Phage-352 (MDWCPIHLWYECFN) showed a Background signal of 0.080. On the same count and under the same terms, to Phage-350 (MDWCPWFLWNECFN) belongs 0.158. The substance Phage-349 (LDWCPRHLWALCFN) yielded a Background signal of 0.073. Turning to Phage-373 (MDWCPRILWSDCFN), the Background signal turned out to be 0.082.

With “Phage-41 (MAWCPRDKWSECFS; not fully specified; cysteine pairing not given here)”, the Background signal (Peptide-9 library) amounted to 0.062. As to “Phage-55 (QDWCPRHMWSFCFH; not fully specified; cysteine pairing not given here)”, the Background signal (Peptide-9 library) was 0.138.

Substance Phage-347 (MDWCPLFLWDQCFN) returned a Background signal of 0.116. Take “Phage-64 (MDWCPRALWAECFN; left off: large carriers)”: for the setting “Peptide-9 library”, the Background signal is 0.068. As for Phage-116 (MDWCPRDLWYACFA), for the setting “Peptide-9 library”, the Background signal is reported as 0.072. As to Phage-308 (MDWCPKSLWAECFN), the Background signal is on record as 0.395. With Phage-444 (VNQCTRYRWAECLN), the Background signal (Peptide-9 library) was 0.465. Substance Phage-394 (MDWCPRYMWSDCFF) had a Background signal of 0.082.

In the case of Phage-328 (MDWCPRALWDHCFN), the Background signal is given as 0.323. Phage-399 (MDWCPRSMWDSCFN) registered a Background signal of 0.332. Phage-282 (MDWCPRDLWFACFA) gave a Background signal of 0.060. Consider Phage-413 (MDWCPSDMWSNCFN), for which the Background signal (Peptide-9 library) came out at 0.070. The same measure, in the same setting: then Phage-420 (MFWCPSTMWNRCFD), with 0.063. “Phage-277 (MDWCPRSHWSECFS; not fully specified; cysteine pairing not given here)” had a Background signal of 0.080. Phage-342 (MDWCPRNLWHECFA) registered a Background signal of 0.067. “Phage-53 (MDWCPMHLWNKCFN; not fully specified; cysteine pairing not given here)”: the Background signal (Peptide-9 library) came to 0.071.

In the case of Phage-134 (MDWCPSYLWHECFA), for the setting “Peptide-9 library”, the Background signal stood at 0.096.

Substance Phage-136 (MHWCPIYLWDECFN) registered a Background signal (Peptide-9 library) of 0.071. Turning to Phage-371 (MAWCPRYLWAECFF), the Background signal came out at 0.510. For the substance Phage-126 (MDWCPRFLWNECFN), the Background signal (Peptide-9 library) came to 0.072. Still for that read-out and setting: then Phage-423 (INLCPTPMWNRCWL), with 0.119. Consider Phage-305 (MDWCPRDLWTECFS), for which the Background signal is 0.080. The substance Phage-346 (MDWCPRHLWHACFS) yielded a Background signal of 0.073. For the substance Phage-130 (MDWCPRYLWDACFF), for the setting “Peptide-9 library”, the Background signal was determined as 0.066. The substance Phage-286 (MERCPRYLWHMCYS) yielded a Background signal of 0.164. Same read-out and setting: then Phage-304 (MDWCPKFLWDECFA), with 0.311. In the case of Phage-117 (MDWCPRYLWFECFS), the Background signal (Peptide-9 library) was 0.079.
